This note sets out measurements from patent US20240279218A1 (Hoffmann-La Roche Inc., priority 2016, published 2024).

Experiment [1] concerns the target T1, h-GABA-A α5β3γ2 (Homo sapiens (Human), UniProt P18507+P31644). The experiment is described as follows: [3H]flumazenil competition binding assay, membranes of HEK293 cells expressing human GABAA receptors. The conditions noted are these: displacement of [3H]flumazenil 0.5 nM, HEK293 cells expressing human receptors, mean of two determinations; read-out: Ki h-GABA-A α5β3γ2. In short, it runs like this:
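Membranes were prepared from HEK293 cells with transient human α5β3γ2 expression and assayed in Krebs-tris, pH 7.5. Bound radioactivity measured on filters by liquid scintillation.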

Experiment [2] concerns the target T1, h-GABA-A α5β3γ2. The experiment is described as follows: Two-electrode voltage clamp electrophysiology in Xenopus oocytes expressing GABAA receptors, modulation of GABA EC20 current. The experiment is classed as cell-based. Conditions: Xenopus oocytes; for Efficacy (GABA) %: % modulation of GABA EC20 = 100*(Fold increase−1); for Fold increase h-GABA-A α5β3γ2 oocyte: GABA EC20, test compound at approx. 30 fold its Ki. The gist of the method:
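Values are % modulation of an EC20 GABA response, derived point by point from the ratio of compound-exposed versus control current traces (extremum taken, 100×(fold−1)). Recordings used oocytes injected with human α5, β3, γ2 mRNA, clamped at −80 mV at room temperature, at least 3 oocytes each.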
(Two-electrode voltage clamp holds a large cell at a set potential and records current.)

The structures appear in SMILES notation.

Take `Cc1ccc(-c2noc(C)c2COc2ccc(C(=O)N[C@@H]3CCOC[C@@H]3C)nn2)cn1` [Example 52, 6-((5-methyl-3-(6-methylpyridin-3-yl)isoxazol-4-yl)methoxy)-N-((3R,4R)-3-methyltetrahydropyran-4-yl)pyridazine-3-carboxamide]: the Ki on h-GABA-A α5β3γ2 [1] turned out to be 28.9 nM. For the same compound, at h-GABA-A α5β3γ2 [2], the “Efficacy (GABA) %” value is recorded as 67% and the “Fold increase h-GABA-A α5β3γ2 oocyte” value is listed as 1.67.

Regarding `Cc1ccc(-c2noc(C)c2COc2ccc(C(=O)N3CCC(F)(F)CC3)nn2)cn1` [Example 53, (4,4-difluoropiperidin-1-yl)(6-((5-methyl-3-(6-methylpyridin-3-yl)isoxazol-4-yl)methoxy)pyridazin-3-yl)methanone], on h-GABA-A α5β3γ2 [1], the Ki was 95.8 nM. For the same compound, at h-GABA-A α5β3γ2 [2], the “Efficacy (GABA) %” value is given as 80% and the “Fold increase h-GABA-A α5β3γ2 oocyte” value is 1.8.

As for `COCC1(NC(=O)c2ccc(OCc3c(-c4ccc(C)nc4)noc3C)nn2)CC1` [Example 54, N-(1-(methoxymethyl)cyclopropyl)-6-((5-methyl-3-(6-methylpyridin-3-yl)isoxazol-4-yl)methoxy)pyridazine-3-carboxamide], on h-GABA-A α5β3γ2 [1], the Ki is 19.9 nM. Moreover, on h-GABA-A α5β3γ2 [2], the “Efficacy (GABA) %” value is recorded as 86% and the “Fold increase h-GABA-A α5β3γ2 oocyte” value was 1.86.

Consider `COC1CN(C(=O)c2ccc(OCc3c(-c4ccc(C)nc4)noc3C)nn2)C1` [Example 55, (3-methoxyazetidin-1-yl)(6-((5-methyl-3-(6-methylpyridin-3-yl)isoxazol-4-yl)methoxy)pyridazin-3-yl)methanone], for which the Ki at h-GABA-A α5β3γ2 [1] came out at 8.6 nM. At h-GABA-A α5β3γ2 [2], the “Efficacy (GABA) %” value is listed as 57% and the “Fold increase h-GABA-A α5β3γ2 oocyte” value was 1.57.

With `Cc1ccc(-c2noc(C)c2COc2ccc(C(=O)N3CC(C)(O)C3)nn2)cn1` [Example 56, (3-hydroxy-3-methylazetidin-1-yl)(6-((5-methyl-3-(6-methylpyridin-3-yl)isoxazol-4-yl)methoxy)pyridazin-3-yl)methanone], the Ki at h-GABA-A α5β3γ2 [1] is 7.9 nM. In addition, on h-GABA-A α5β3γ2 [2], the “Efficacy (GABA) %” value turned out to be 64% and the “Fold increase h-GABA-A α5β3γ2 oocyte” value was 1.64.

In the case of `Cc1ccc(-c2noc(C)c2COc2ccc(C(=O)N3CCC3)nn2)cn1` [Example 57, azetidin-1-yl(6-((5-methyl-3-(6-methylpyridin-3-yl)isoxazol-4-yl)methoxy)pyridazin-3-yl)methanone], the Ki at h-GABA-A α5β3γ2 [1] was 7.2 nM. Besides, on h-GABA-A α5β3γ2 [2], the “Efficacy (GABA) %” value is listed as 64% and the “Fold increase h-GABA-A α5β3γ2 oocyte” value is 1.64.

In the case of `Cc1ccc(-c2noc(C)c2COc2ccc(C(=O)NC3(C(F)(F)F)CC3)nn2)cn1` [Example 59, 6-((5-methyl-3-(6-methylpyridin-3-yl)isoxazol-4-yl)methoxy)-N-(1-(trifluoromethyl)cyclopropyl)pyridazine-3-carboxamide], the Ki at h-GABA-A α5β3γ2 [1] came out at 10.4 nM. For the same compound, at h-GABA-A α5β3γ2 [2], the “Efficacy (GABA) %” value was 93% and the “Fold increase h-GABA-A α5β3γ2 oocyte” value was determined as 1.93.

For `Cc1ccc(-c2noc(C)c2COc2ccc(C(=O)N3CCOCC3)nn2)cn1` [Example 60, (6-((5-methyl-3-(6-methylpyridin-3-yl)isoxazol-4-yl)methoxy)pyridazin-3-yl)(morpholino)methanone], the Ki at h-GABA-A α5β3γ2 [1] worked out at 93.4 nM. Also, at h-GABA-A α5β3γ2 [2], the “Efficacy (GABA) %” value is reported as 99% and the “Fold increase h-GABA-A α5β3γ2 oocyte” value stood at 1.99.

With `Cc1ccc(-c2noc(C)c2COc2ccc(C(=O)N3CC4(COC4)C3)nn2)cn1` [Example 61, (6-((5-methyl-3-(6-methylpyridin-3-yl)isoxazol-4-yl)methoxy)pyridazin-3-yl)(2-oxa-6-azaspiro[3.3]heptan-6-yl)methanone], the Ki at h-GABA-A α5β3γ2 [1] was determined as 7.1 nM. Also, on h-GABA-A α5β3γ2 [2], the “Efficacy (GABA) %” value was found to be 58% and the “Fold increase h-GABA-A α5β3γ2 oocyte” value is listed as 1.58.

In the case of `Cc1ccc(-c2noc(C)c2COc2cc(C)c(C(=O)NC3CCOCC3)nn2)cn1` [Example 62, 4-methyl-6-((5-methyl-3-(6-methylpyridin-3-yl)isoxazol-4-yl)methoxy)-N-(tetrahydropyran-4-yl)pyridazine-3-carboxamide], the Ki on h-GABA-A α5β3γ2 [1] was found to be 20.8 nM. Moreover, on h-GABA-A α5β3γ2 [2], the “Efficacy (GABA) %” value is 42% and the “Fold increase h-GABA-A α5β3γ2 oocyte” value is reported as 1.42.

In the case of `Cc1ccc(-c2noc(C)c2COc2ccc(C(=O)N3CCC34COC4)nn2)cn1` [Example 63, (6-((5-methyl-3-(6-methylpyridin-3-yl)isoxazol-4-yl)methoxy)pyridazin-3-yl)(6-oxa-1-azaspiro[3.3]heptan-1-yl)methanone], the Ki at h-GABA-A α5β3γ2 [1] worked out at 4.6 nM. On h-GABA-A α5β3γ2 [2], the “Efficacy (GABA) %” value came out at 79% and the “Fold increase h-GABA-A α5β3γ2 oocyte” value was found to be 1.79.

Turning to `Cc1ccc(-c2noc(C)c2COc2ccc(C(=O)NC(C)(C)C(F)(F)F)nn2)cn1` [Example 64, 6-((5-methyl-3-(6-methylpyridin-3-yl)isoxazol-4-yl)methoxy)-N-(1,1,1-trifluoro-2-methylpropan-2-yl)pyridazine-3-carboxamide], the Ki at h-GABA-A α5β3γ2 [1] is 17.6 nM. Further, on h-GABA-A α5β3γ2 [2], the “Efficacy (GABA) %” value is reported as 86% and the “Fold increase h-GABA-A α5β3γ2 oocyte” value is 1.86.

Turning to `Cc1ccc(-c2noc(C)c2COc2ccc(C(=O)N3CC(F)C3)nn2)cn1` [Example 65, (3-fluoroazetidin-1-yl)(6-((5-methyl-3-(6-methylpyridin-3-yl)isoxazol-4-yl)methoxy)pyridazin-3-yl)methanone], the Ki on h-GABA-A α5β3γ2 [1] stood at 7.2 nM. Besides, on h-GABA-A α5β3γ2 [2], the “Efficacy (GABA) %” value is reported as 62% and the “Fold increase h-GABA-A α5β3γ2 oocyte” value is listed as 1.62.

In the case of `Cc1ccc(-c2noc(C)c2COc2ccc(C(=O)N3CC(O)C3)nn2)cn1` [Example 66, (3-hydroxyazetidin-1-yl)(6-((5-methyl-3-(6-methylpyridin-3-yl)isoxazol-4-yl)methoxy)pyridazin-3-yl)methanone], the Ki on h-GABA-A α5β3γ2 [1] was found to be 5.8 nM. Further, on h-GABA-A α5β3γ2 [2], the “Efficacy (GABA) %” value was 69% and the “Fold increase h-GABA-A α5β3γ2 oocyte” value is 1.69.

Turning to `Cc1ccc(-c2noc(C)c2COc2ccc(C(=O)N3CC(C)(F)C3)nn2)cn1` [Example 67, (3-fluoro-3-methylazetidin-1-yl)(6-((5-methyl-3-(6-methylpyridin-3-yl)isoxazol-4-yl)methoxy)pyridazin-3-yl)methanone], the inhibition constant Ki at h-GABA-A α5β3γ2 [1] came to 11.8 nM. Besides, at h-GABA-A α5β3γ2 [2], the “Efficacy (GABA) %” value was 59% and the “Fold increase h-GABA-A α5β3γ2 oocyte” value was found to be 1.59.

In the case of `CCOC(=O)C1(NC(=O)c2ccc(OCc3c(-c4ccc(C)nc4)noc3C)nn2)CC1` [Example 68, ethyl 1-(6-((5-methyl-3-(6-methylpyridin-3-yl)isoxazol-4-yl)methoxy)pyridazine-3-carboxamido)cyclopropanecarboxylate], the Ki at h-GABA-A α5β3γ2 [1] came out at 56.2 nM. Further, on h-GABA-A α5β3γ2 [2], the “Efficacy (GABA) %” value is listed as 72% and the “Fold increase h-GABA-A α5β3γ2 oocyte” value was 1.72.

Take `Cc1ccc(-c2noc(C)c2COc2ccc(C(=O)NC3(C#N)CC3)nn2)cn1` [Example 69, N-(1-cyanocyclopropyl)-6-((5-methyl-3-(6-methylpyridin-3-yl)isoxazol-4-yl)methoxy)pyridazine-3-carboxamide]: the Ki on h-GABA-A α5β3γ2 [1] is 7.7 nM. Also, at h-GABA-A α5β3γ2 [2], the “Efficacy (GABA) %” value is recorded as 86% and the “Fold increase h-GABA-A α5β3γ2 oocyte” value was determined as 1.86.

Turning to `Cc1ccc(-c2noc(C)c2COc2nnc(C(N)=O)cc2C)cn1` [Example 70, 5-methyl-6-((5-methyl-3-(6-methylpyridin-3-yl)isoxazol-4-yl)methoxy)pyridazine-3-carboxamide], the Ki at h-GABA-A α5β3γ2 [1] worked out at 1.2 nM. For the same compound, on h-GABA-A α5β3γ2 [2], the “Efficacy (GABA) %” value worked out at 54% and the “Fold increase h-GABA-A α5β3γ2 oocyte” value is 1.54.

Turning to `Cc1ccc(-c2noc(C)c2COc2nnc(C(=O)NC3CCOCC3)cc2C)cn1` [Example 71], the Ki at h-GABA-A α5β3γ2 [1] was 2.4 nM. Besides, at h-GABA-A α5β3γ2 [2], the “Efficacy (GABA) %” value was 61% and the “Fold increase h-GABA-A α5β3γ2 oocyte” value was determined as 1.61.

As for `Cc1ccc(-c2noc(C)c2COc2cnc(C(=O)NC3CCS(=O)(=O)CC3)cn2)cn1` [Example 72, N-(1,1-dioxothian-4-yl)-5-((5-methyl-3-(6-methyl-3-pyridyl)isoxazol-4-yl)methoxy)pyrazine-2-carboxamide], the Ki at h-GABA-A α5β3γ2 [1] stood at 11.4 nM. For the same compound, at h-GABA-A α5β3γ2 [2], the “Efficacy (GABA) %” value worked out at 130% and the “Fold increase h-GABA-A α5β3γ2 oocyte” value amounted to 2.3.

On to `Cc1ccc(-c2noc(C)c2COc2cnc(C(=O)NC(C)(C)CO)cn2)cn1` [Example 73, N-(2-hydroxy-1,1-dimethyl-ethyl)-5-((5-methyl-3-(6-methyl-3-pyridyl)isoxazol-4-yl)methoxy)pyrazine-2-carboxamide], for which, at h-GABA-A α5β3γ2 [1], the Ki came out at 52.8 nM. Besides, at h-GABA-A α5β3γ2 [2], the “Efficacy (GABA) %” value came out at 45% and the “Fold increase h-GABA-A α5β3γ2 oocyte” value was 1.45.

For the compound `Cc1ccc(-c2noc(C)c2COc2cnc(C(=O)NC3CC3)cn2)cn1` [Example 74, N-cyclopropyl-5-((5-methyl-3-(6-methyl-3-pyridyl)isoxazol-4-yl)methoxy)pyrazine-2-carboxamide], the Ki at h-GABA-A α5β3γ2 [1] turned out to be 9.2 nM. For the same compound, on h-GABA-A α5β3γ2 [2], the “Efficacy (GABA) %” value amounted to 28% and the “Fold increase h-GABA-A α5β3γ2 oocyte” value amounted to 1.28.

On to `Cc1ccc(-c2noc(C)c2COc2ccc(C(=O)NC3(C)CC3)nn2)cn1` [Example 76, 6-((5-methyl-3-(6-methylpyridin-3-yl)isoxazol-4-yl)methoxy)-N-(1-methylcyclopropyl)pyridazine-3-carboxamide], for which, at h-GABA-A α5β3γ2 [1], the Ki was found to be 9 nM. Further, at h-GABA-A α5β3γ2 [2], the “Efficacy (GABA) %” value was found to be 92% and the “Fold increase h-GABA-A α5β3γ2 oocyte” value was 1.92.

For the compound `Cc1ccc(-c2noc(C)c2COc2cnc(C(=O)NC3COC3)cn2)cn1` [Example 77, 5-((5-methyl-3-(6-methyl-3-pyridyl)isoxazol-4-yl)methoxy)-N-(oxetan-3-yl)pyrazine-2-carboxamide], the Ki on h-GABA-A α5β3γ2 [1] amounted to 5.2 nM. For the same compound, on h-GABA-A α5β3γ2 [2], the “Efficacy (GABA) %” value turned out to be 11% and the “Fold increase h-GABA-A α5β3γ2 oocyte” value came to 1.11.

What is called Ki is a measure of affinity in units of concentration, obtained from inhibition or displacement.
